Results reported in patent US20250163056A1, “NONMUSCLE MYOSIN II INHIBITORS” (The University of Florida Research Foundation, Inc., priority 2018, published 2025).

Legend:
[1] = Photostability, percentage remaining undegraded under illumination or in the dark; details: for Photostability 4 hours: percentage remaining undegraded after 4 hours illumination; for Photostability 24 hours: percentage remaining undegraded after 24 hours illumination; for Photostability Dark (24 h): percentage remaining undegraded in the dark
[2] = molecular target: Rabbit skeletal myosin; assay: Skeletal muscle myosin II actin-activated ATPase assay; assay type: biochemical; details: 20 nM skeletal muscle myosin II; read-out: SKMMII KI
Summary of the method: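 NADH-coupled (PK/LDH) actin-activated ATPase at 25 °C with 20 nM rabbit skeletal myosin II, 10 μM F-actin, 1 mM ATP, 1 mM PEP, 220 μM NADH in MOPS pH 7.0, MgCl2, EGTA, BSA, DTT, 0.5% DMSO. NADH fluorescence followed 30 min; inhibitory constants from 16-point triplicate curves (top 50 uM), quadratic one-to-one fit.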

[3] = molecular target: Bovine cardiac myosin (Bos taurus (Bovine), UniProt Q9BE39); assay: Cardiac muscle myosin II actin-activated ATPase assay (NADH-coupled); assay type: biochemical; set-up: key to Ratio CMMII:NMII Ki/EC50: NMII-sel: no Ki value for cardiac myosin II could be determined; the compounds had no detectable inhibitory properties versus the cardiac myosin II; details: for Ki: 300 nM cardiac myosin, 10 μM actin, 25° C., read-out: CMMII KI; for Ratio CMMII:NMII Ki/EC50: cardiac myosin II Ki over nonmuscle myosin II EC50
Summary of the method: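 NADH-coupled (PK/LDH) assay at 25° C: 300 nM bovine cardiac myosin, 10 μM rabbit F-actin, 1 mM ATP, 1 mM PEP, 220 μM NADH, MOPS pH 7.0, 0.5% DMSO. NADH fluorescence was followed for 30 min; Ki values came from 16-point triplicate data (top 50 uM) fitted to a quadratic one-to-one binding model.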

Chain of Bovine cardiac myosin (Q9BE39 whole entry): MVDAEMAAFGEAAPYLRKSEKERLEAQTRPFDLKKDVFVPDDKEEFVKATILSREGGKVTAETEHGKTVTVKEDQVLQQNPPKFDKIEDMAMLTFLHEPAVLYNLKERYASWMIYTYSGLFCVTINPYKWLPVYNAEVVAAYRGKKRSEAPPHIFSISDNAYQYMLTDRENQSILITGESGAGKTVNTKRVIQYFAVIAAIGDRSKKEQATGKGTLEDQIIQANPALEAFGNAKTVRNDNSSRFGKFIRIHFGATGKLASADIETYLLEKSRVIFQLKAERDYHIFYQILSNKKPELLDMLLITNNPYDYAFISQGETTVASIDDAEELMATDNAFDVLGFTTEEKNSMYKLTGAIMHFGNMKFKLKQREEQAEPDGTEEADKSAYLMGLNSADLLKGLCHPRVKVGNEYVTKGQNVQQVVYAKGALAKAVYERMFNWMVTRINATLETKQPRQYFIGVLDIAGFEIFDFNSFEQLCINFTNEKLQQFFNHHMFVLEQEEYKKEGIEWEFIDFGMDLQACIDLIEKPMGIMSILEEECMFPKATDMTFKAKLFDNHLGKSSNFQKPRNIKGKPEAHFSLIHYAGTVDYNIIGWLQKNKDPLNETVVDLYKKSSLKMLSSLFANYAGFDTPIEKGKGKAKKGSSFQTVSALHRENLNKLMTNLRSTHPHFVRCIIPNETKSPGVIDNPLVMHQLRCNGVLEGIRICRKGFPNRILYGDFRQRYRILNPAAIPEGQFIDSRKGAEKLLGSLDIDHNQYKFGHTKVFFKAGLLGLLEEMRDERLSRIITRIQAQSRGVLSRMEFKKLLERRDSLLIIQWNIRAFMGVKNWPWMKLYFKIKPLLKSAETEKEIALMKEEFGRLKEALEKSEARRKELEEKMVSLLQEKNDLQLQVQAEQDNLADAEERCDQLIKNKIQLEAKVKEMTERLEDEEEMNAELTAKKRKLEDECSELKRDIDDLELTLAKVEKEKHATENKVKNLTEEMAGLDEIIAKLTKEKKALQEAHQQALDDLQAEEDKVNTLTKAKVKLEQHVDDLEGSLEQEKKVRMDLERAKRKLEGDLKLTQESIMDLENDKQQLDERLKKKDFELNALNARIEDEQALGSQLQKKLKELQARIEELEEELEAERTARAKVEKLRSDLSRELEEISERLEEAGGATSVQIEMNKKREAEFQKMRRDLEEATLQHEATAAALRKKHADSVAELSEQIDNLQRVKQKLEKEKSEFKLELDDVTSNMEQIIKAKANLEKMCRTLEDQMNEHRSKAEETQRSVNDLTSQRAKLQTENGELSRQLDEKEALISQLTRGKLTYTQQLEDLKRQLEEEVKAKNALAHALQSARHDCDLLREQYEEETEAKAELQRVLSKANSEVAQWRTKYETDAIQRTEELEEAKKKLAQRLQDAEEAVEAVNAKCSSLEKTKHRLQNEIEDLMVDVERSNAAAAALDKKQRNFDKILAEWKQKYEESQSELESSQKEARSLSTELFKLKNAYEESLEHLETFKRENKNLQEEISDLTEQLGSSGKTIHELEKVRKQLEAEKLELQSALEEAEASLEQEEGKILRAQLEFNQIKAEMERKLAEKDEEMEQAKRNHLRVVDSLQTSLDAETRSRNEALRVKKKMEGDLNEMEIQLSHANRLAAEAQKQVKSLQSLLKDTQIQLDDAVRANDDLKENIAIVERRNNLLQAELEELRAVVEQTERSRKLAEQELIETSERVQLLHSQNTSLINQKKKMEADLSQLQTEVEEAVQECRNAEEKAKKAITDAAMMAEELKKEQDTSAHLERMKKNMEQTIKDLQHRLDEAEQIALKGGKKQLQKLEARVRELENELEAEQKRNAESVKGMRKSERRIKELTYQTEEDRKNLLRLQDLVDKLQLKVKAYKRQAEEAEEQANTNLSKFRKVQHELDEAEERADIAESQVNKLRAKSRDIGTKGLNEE
Chain of Bovine cardiac myosin (P85100 whole entry partner): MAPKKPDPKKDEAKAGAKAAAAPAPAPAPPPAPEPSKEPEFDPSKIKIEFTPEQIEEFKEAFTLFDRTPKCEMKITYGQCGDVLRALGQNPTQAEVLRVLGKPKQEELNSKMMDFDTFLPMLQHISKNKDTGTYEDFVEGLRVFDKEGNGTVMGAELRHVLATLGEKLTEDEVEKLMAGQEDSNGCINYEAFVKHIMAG
Chain of Bovine cardiac myosin (Q3SZE5 whole entry partner): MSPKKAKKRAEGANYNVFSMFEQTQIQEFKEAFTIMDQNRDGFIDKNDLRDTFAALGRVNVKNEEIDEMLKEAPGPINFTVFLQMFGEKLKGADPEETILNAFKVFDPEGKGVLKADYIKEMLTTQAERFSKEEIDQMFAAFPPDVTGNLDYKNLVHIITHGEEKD

SMILES | Photostability 4 hours [1] [%] | Photostability 24 hours [1] [%] | Photostability Dark (24 h) [1] [%] | Ki [2] [µM] | Ki [3] [µM] | Ratio CMMII:NMII Ki/EC50 [3]
CCc1cc2c(s1)N=C1N(c3ccc(OC)cc3)CC[C@@]1(O)C2=O [BPN-0026881] | 70.9 | 1.8 | >99 | 0.8 | 11 | 6.1
COc1ccc(N2CC[C@@]3(O)C(=O)c4cc(C)c(C)cc4N=C23)cn1 [BPN-0028648] | 52.5 | <1 | 98.4 | 0.26 | 4.4 | 3.4
COc1ncc(N2CC[C@@]3(O)C(=O)c4cc(C)c(C)cc4N=C23)cc1Cl [BPN-0028820] | 80.9 | 62.7 | 94.2 | 3 |  | NMII-sel
Cc1ccc2cc(N3CC[C@@]4(O)C(=O)c5cc(C)sc5N=C34)ccc2n1 [BPN-0028898] | 93.4 | 58.1 | 96.4 | 1.9 | 95 | 31.7
Cc1sc2c(c1C)C(=O)[C@]1(O)CCN(c3ccc(Cl)cc3)C1=N2 [BPN-0026815] | 91.2 | 88.2 | 90.2 | 0.27 | 2.8 | 3.6
CNc1cc(N2CC[C@@]3(O)C(=O)c4cc(C)c(C)cc4N=C23)ccn1 [BPN-0028650] | 88.7 | 62.6 | 93.4 | 12 | 40 | 4.4
COc1ccc(N2CC[C@@]3(O)C(=O)c4cc(C)c(C(F)(F)F)cc4N=C23)cc1 [BPN-0026849] | 98.5 | 91.8 | >99 | 0.77 | 16 | 16.0
COc1ccc2cc(N3CC[C@@]4(O)C(=O)c5cc(C)ccc5N=C34)ccc2n1 [BPN-0027255] | 82.4 | 42.2 | 98.3 | 0.8 |  | NMII-sel
Cc1nc2cc(N3CC[C@@]4(O)C(=O)c5cc(C)c(C)cc5N=C34)ccc2s1 [BPN-0027491] | 54.0 | 6.7 | 97.1 | 0.68 | 24 | 10.4
Cc1cc2c(cc1C)C(=O)[C@]1(O)CCN(c3ccc(Cl)cc3)C1=N2 [BPN-0026662] | 85.4 | 7.5 | >99 | 0.19 | 6 | 5.5
Cc1cc2c(cc1C)C(=O)[C@]1(O)CCN(c3ccc4ncc(CO)cc4c3)C1=N2 [BPN-0028736] | 64 | 2 | 95.3 | 1.5 | 90 | 6.9
Cc1cc2c(cc1C)C(=O)[C@]1(O)CCN(c3ccc(I)cc3)C1=N2 [BPN-0027109] | 82.5 | 29.4 | >99 | 0.27 | 11 | 21.2
Cc1ccc2cc(N3CC[C@@]4(O)C(=O)c5cc(C)c(C)cc5N=C34)ccc2n1 [BPN-0027490] | 80.8 | 6.8 | 98.5 | 0.41 |  | NMII-sel
O=C1c2cc(Cl)ccc2N=C2N(c3ccc4sccc4c3)CC[C@@]12O [BPN-0026546] | 81.2 | 12.5 | 93.5 | 22 |  | NMII-sel
Cc1ccc2c(c1)C(=O)[C@]1(O)CCN(c3ccc4ncc(C)cc4c3)C1=N2 [BPN-0027160] | 95.5 | 73.0 | >99 | 0.2 | 30 | 10.3

Further compounds by falling Ki [2], results first:

Photostability 4 hours [1] [%] | Photostability 24 hours [1] [%] | Photostability Dark (24 h) [1] [%] | Ki [2] [µM] | Ki [3] [µM] | Ratio CMMII:NMII Ki/EC50 [3] | SMILES
87.7 | 6.4 | 91.7 | 60 |  | NMII-sel | COc1cc(N2CC[C@@]3(O)C(=O)c4cc(C(F)(F)F)ccc4N=C23)ccn1 [BPN-0026533]
90.5 | 88.2 | 92.2 | 24 | 210 | 14.0 | Cc1cc2c(s1)N=C1N(c3cccc(Br)c3)CC[C@@]1(O)C2=O [BPN-0026624]
97.4 | 88.4 | 98.4 | 12 |  | NMII-sel | CCc1cc(N2CC[C@@]3(O)C(=O)c4cc(C)c(C)cc4N=C23)ccn1 [BPN-0028864]
90.3 | 12.1 | >99 | 7 | 28 | 5.4 | COc1cccc(N2CC[C@@]3(O)C(=O)c4cc(C)ccc4N=C23)c1 [BPN-0025044]
89.8 | 31.3 | 95.9 | 4.6 | 68 | 3.1 | Cc1ccc2c(c1)C(=O)[C@]1(O)CCN(c3ccc4cccnc4c3)C1=N2 [BPN-0027039]
94.3 | 84.3 | 97.7 | 4.5 | 56 | 11.9 | Cc1cc2c(cc1C(F)(F)F)N=C1N(c3ccccc3)CC[C@@]1(O)C2=O [BPN-0026648]
44.7 | <1 | 97.7 | 2.6 | 20 | 11.8 | Cc1cc2c(cc1C)C(=O)[C@]1(O)CCN(c3ccc4c(c3)OCCC4)C1=N2 [BPN-0028924]
4.7 | <1 | 93.6 | 1.5 | 4.6 | 6.1 | Cc1cc2c(cc1C)C(=O)[C@]1(O)CCN(c3ccc4oc(CO)cc4c3)C1=N2 [BPN-0028555]
81.8 | 6.4 | 98.8 | 1.1 | 51 | 8.1 | Cc1ccc2c(c1)C(=O)[C@]1(O)CCN(c3ccc4sc(C)nc4c3)C1=N2 [BPN-0027411]
73.2 | 9.2 | 97.3 | 1 |  | NMII-sel | Cc1cc2c(cc1C)C(=O)[C@]1(O)CCN(c3ccc4ncccc4c3)C1=N2 [BPN-0027215]
87.9 | 83 | 87.6 | 0.94 | 16 | 4.3 | Cc1cc2c(cc1C)C(=O)[C@]1(O)CCN(c3cnc(C#N)c(C)c3)C1=N2 [BPN-0028760]
